From publication PMC7281206, “Cysteine Cathepsins Inhibition Affects Their Expression and Human Renal Cancer Cell Phenotype” (Cancers, 2020) come the findings set out here.

*: point of attachment. CH2F = FC*

In experiment [1] the test system is A498 cells (endolysosomal compartment). The experiment is described as follows: LysoTracker red fluorescence, A498. The note with it: 20 μM; 48 h; 75 nM LysoTracker red, 1 h, Ex/Em 570/600. It counts as cell-based, human. The procedure:
First, 1.5 × 10^4 769-P or A498 cells were seeded in 96-well plates in full medium. The day after the cells were treated with the peptides for 3 consecutive days to establish 24, 48, and 72 h groups of treatment. LysoTracker Red fluorescence intensity was measured via microplate reader following the protocols described in [75] and applying Ex/Em = 570/600. The cells were incubated with 75 nM of LysoTracker red for 1 h. […]
Figure S6. The effect of the peptide inhibitors on human 769‐P and A498 renal cancer cell on
lysosomes integrity. (a) 769‐P and (b) A498 cells were treated with increasing doses of Ac‐PLVE‐FMK
(red bars) and Ac‐VLPE‐FMK (blue bars) (2.5–250 μM). NR uptake was measured after 24, 48, and 72
h via MTT assay. (c) LysoTracker red evaluation in 769‐P and (d) A498 cells after 24, 48, and 72 h with
the inhibitors (20 μM). Data represent the mean (± S.D.) of at least three independent experiments,
each performed in triplicate. […]

In the next experiment the test system is SNAIL1 in A498 cells. The experiment is described as follows: SNAIL1 protein expression (western blot), A498. It counts as cell-based, human. As to conditions: 72 h. The procedure: These properties could be the result of the modulation of the effectors controlling EMT, as previously shown in other tumor models. To test this hypothesis, the cells were treated with the inhibitors for 24, 48, and 72 h by changing the media every day, and they were tested for E-cadherin and SNAIL1 expression (Figure 6; detail information of western blots can be seen in Supplementary Figure S7). Figure 6 Effects of the peptides on E-cadherin and SNAIL1 protein expression: (a,b) protein expression of E-cadherin and SNAIL1 in 769-P and (c,d) A498 cells after 24, 48, and 72 h of treatment with the peptides. Data are represented as mean ± SD of at least three replicates. Significance was calculated through one-way ANOVA, followed by Dunnet’s test. Cells were seeded in RPMI containing 10% FBS and cultured for 24 h. Next, 30 µM of inhibitors were added to the culture medium and incubated for 24, 48, and 72 h. Control cells were treated with 0.01% DMSO. At all time points the samples were lysed in 50 mM Tri-HCl (pH 8.0), 100 mM NaCl, 0.5% NP-40, 1% Triton X-100, 1× protease inhibitor cocktail (ThermoFisher, Waltham, MA, USA). The 50 µg of protein lysates were separated by electrophoresis on a 12% SDS-PAGE gel and transferred to the PFDF membranes. […] After an additional wash (three times with PBS), reactive bands were detected by chemiluminescence (Bio-Rad, Irvine, CA, USA). […]
A general note: In western blotting, separated proteins are transferred to a membrane and probed.

Another experiment has as its system human recombinant CtsB. The experiment can be described thus: Fluorescent protease activity assay, recombinant CtsB. The format is biochemical. The note with it: 20 nM CtsB, 50 μM Ac-PLVQ-AMC, inhibitor 2 μM; 0.1 M sodium acetic buffer pH 4.6, 12 min, Ex/Em 353/442 nm. The procedure:
Ac-PLVE-FMK and Ac-VLPE-FMK inhibitory properties were evaluated against human recombinant CtsL and B. These recombinant enzymes were expressed in E. coli via plasmid transformation and further purification, using nickel-nitrilotriacetic acid (Ni-NTA) sepharose. Gel zymography assay was used to provide a preliminary evaluation of the ability of these recombinant proteins to degrade the gelatin substrate previously embedded in the gel (Supplementary Figure S1). Following Coomassie staining, the Cts were detectable as single bands. As expected, a translucent area was evident, due to the substrate digestion in the proximity of the proteins. Then, the recombinant proteins were tested for their ability to digest the Triticain-α substrate Ac-PLVQ via fluorescent protease activity assay, previously optimized by our group. This probe was conjugated with the fluorogenic chromophore 7-amino-4-methylcoumarin (Ac-PLVQ-AMC). After proteolytic cleavage, it emits a detectable fluorescent signal.
Total RNA extract from retinoblastoma […] cells was used to obtain cDNA. A pair of oligonucleotides ([…] and […]) was used for the amplification of DNA fragment containing CtsB, the product of which was ligated into pET15b (Merck Millipore, Billerica, MA, USA) using NdeI and XhoI. DNA fragment containing CtsL was amplified using a pair of oligonucleotides ([…] and […]) and ligated into pET28a (+) (Merck Millipore, Billerica, MA, USA) using NheI and HindIII. […]
The activity of recombinant CtsL and B was detected by the hydrolysis of the fluorogenic substrate Ac-Pro-Leu-Val-Gln- 7-amino-4-methylcoumarin (AMC) (Pepmic Suzhou Jiangsu, China). […] The substrate was added to a final concentration of 50 μM, and its hydrolysis was continuously measured for 12 min using a CLARIOstar® Plus plate reader (BMG Labtech Ortenberg Baden-Württemberg, Germany) at excitation and emission wavelengths of 353 and 442 nm, respectively.

With Ac-VLPE-CH2F [Ac-VLPE-FMK], the LysoTracker red fluorescence entry in experiment [1] is on record as “decreasing”. In addition, in the experiment on SNAIL1 in A498 cells, the SNAIL1 protein expression result is “dropped to values more similar to the control”. Further, in the experiment on human recombinant CtsB, the “Inhibition of Ac-PLVQ-AMC cleavage (fluorescent signal)” value is listed as “the intensity of the fluorescent signal was significantly affected”.

With Ac-PLVE-CH2F [Ac-PLVE-FMK], the LysoTracker red fluorescence result in experiment [1] is given as “decreasing”. Further, in the experiment with SNAIL1 in A498 cells, the SNAIL1 protein expression entry is on record as “dropped to values more similar to the control”. For the same substance, the “Inhibition of Ac-PLVQ-AMC cleavage (fluorescent signal)” value in the experiment on human recombinant CtsB is “the intensity of the fluorescent signal was significantly affected”.
